Results: patent US11371055B2, “Herbicide resistance genes” (CORTEVA AGRISCIENCE LLC, priority 2005, dated 2022)

Experiments:
[1] = biological target: T1, AAD-12 (v2) (Delftia acidovorans, UniProt P83309); test: Colorimetric phenol detection assay of AAD-12 activity; format: biochemical; conditions: for activity of AAD-12 (v2) on substrate (absorbance at 510 nm, FIG. 3): 4.4 μg AAD-12 (v2), 0.5 mM substrate, 5 minutes
T1 construct: made in house; host or cells: Pseudomonas fluorescens strain MB324 (construct pDAB739)
Protocol: Enzyme activity was measured by colorimetric detection of the product phenol using a protocol modified from that of Fukumori and Hausinger (1993) (J. Biol. Chem. 268: 24311-24317) to enable deployment in a 96-well microplate format. The colorimetric assay has been described for use in measuring the activity of dioxygenases cleaving 2,4-D and dichlorprop to release the product 2,4-dichlorophenol. The color yield from several phenols was compared to that of 2,4-dichlorophenol using the detection method previously described to ascertain which phenol products could be readily detected. […] Pyridinols derived from fluroxypyr and triclopyr produced no significant color. The color yield of 2,4-dichlorophenol was linear and proportional to the concentration of phenol in the assay up to ˜500 μM.
Assays were initiated by addition of the aryloxyalkanoate substrate, enzyme or α-ketoglutarate at time zero. After 5 minutes of incubation at 25° C., the reaction was terminated by addition of 30 μl of a 1:1:1 mix of 50 mM Na EDTA; pH 10 buffer (3.09 g boric acid+3.73 g KCl+44 ml 1 N KOH) and 0.2% 4-aminoantipyrine. Then 10 μl 0.8% potassium ferricyanide was added and after 5 or 10 min, the absorbance at 510 nm was recorded in a spectrophotometric microplate reader. Blanks contained all reagents except for enzyme to account for the occasional slight contamination of some of the substrates by small amounts of phenols.
The results are shown in FIG. 3, which illustrates activity of AAD-12 (v2) on 2,4-D and enantiomers of dichlorprop. 4.4 μg AAD-12 (v2) was incubated with 0.5 mM substrate (1 mM for (R,S)-dichlorprop) and the reaction initiated by addition of α-ketoglutarate. After 5 minutes, the reaction was quenched, and the absorbance at 510 nm determined after addition of colorimetric detection reagents. The background value without enzyme was subtracted.

[2] = test system: AAD-12 (v1) event pDAB4101[20] T1 rice; test: Field tolerance of rice, AAD-12 event; format: in vivo, Oryza sativa; conditions: for visual injury: 7 or 15DAT; for % Visual injury 7DAT / % Visual injury 15DAT: AAD-12 event pDAB4101[20]
Protocol: A field level tolerance trial was conducted with AAD-12 (v1) event pDAB4101[20] and one wild-type rice (Clearfield 131) at Wayside, Miss. (a non-transgenic imidazolinone-resistant variety). The experimental design was a randomized complete block design with a single replication. […] Within each herbicide treatment, two rows of T1 generation pDAB4101[20] and two rows of Clearfield rice were planted using a small plot drill with 8-inch row spacing. The pDAB4101[20] rice contained the AHAS gene as a selectable marker for the AAD-12(v1) gene. Imazethapyr was applied at the one leaf stage as selection agent to remove any AAD-12 (v1) null plants from the plots. Herbicide treatments were applied when the rice reached the 2 leaf stage using compressed air backpack sprayer delivering 187 L/ha carrier volume at 130-200 kpa pressure. […]

T1 sequence (P83309 whole entry, looked up, natural form): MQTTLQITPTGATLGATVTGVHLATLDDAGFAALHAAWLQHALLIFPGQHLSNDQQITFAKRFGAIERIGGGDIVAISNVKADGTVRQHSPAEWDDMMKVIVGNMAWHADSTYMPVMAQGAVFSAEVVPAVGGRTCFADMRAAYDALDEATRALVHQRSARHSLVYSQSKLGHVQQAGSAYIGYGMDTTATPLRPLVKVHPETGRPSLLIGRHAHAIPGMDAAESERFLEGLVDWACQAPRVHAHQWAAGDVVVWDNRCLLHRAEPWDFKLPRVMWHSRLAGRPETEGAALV

SMILES | activity of AAD-12 (v2) on substrate (absorbance at 510 nm, FIG. 3) [1] | inhibition at 2000 µM ([1]; read-out: Substrate inhibition at 2 mM) [%] | visual injury ([2]; 2,4-D at 2240 g ae/ha) | % Visual injury 7DAT ([2]; 2240 GM AE/HA) [%] | % Visual injury 15DAT ([2]; 2240 GM AE/HA) [%] | visual injury ([2]; 2× rate of triclopyr (560 g ae/ha)) | % Visual injury 7DAT ([2]; 840 GM AE/HA) [%] | % Visual injury 15DAT ([2]; 840 GM AE/HA) [%]
O=C(O)COc1ccc(Cl)cc1Cl [2,4-D, 2,4-dichlorophenoxyacetic acid] | equivalent to that on (S)-dichlorprop | 55 | no injury | 0 | 0 |  |  | 
C[C@@H](Oc1ccc(Cl)cc1Cl)C(=O)O [(R)-dichlorprop, R-2,4-dichlorophenoxypropionic acid] | minimal activity |  |  |  |  |  |  | 
O=C(O)COc1nc(Cl)c(Cl)cc1Cl [triclopyr] |  |  |  |  |  | no injury | 0 | 0
